# Measured values from paper PMC11473416, “Coumarin-chalcone derivatives as dual NLRP1 and NLRP3 inflammasome inhibitors targeting oxidative stress and inflammation in neurotoxin-induced HMC3 and BE(2)-M17 cell models of Parkinson's disease” (Frontiers in Aging Neuroscience, 2024).
# Assays:
# BCL2 = test: Western blot BCL2 in MPP^+-treated BE(2)-M17 cells; type: cell-based, human; conditions: BE(2)-M17, compound 10 μM + 0.62 mM MPP^+; MPP^+ alone 70%; untreated = 100%
# Procedure: (§1) HMC3 (2 × 10^5/6-well) or BE(2)-M17 (4 × 10^5/6-well) cells were lysed in buffer (composition: 50 mM Tris-HCl pH8.0, 2 mM EDTA pH8.0, 150 mM NaCl, 0.5% sodium deoxycholate, 0.1% SDS, 50 mM NaF, 1% NP40) containing the protease and/or phosphatase inhibitor cocktail (Sigma-Aldrich). After sonication, the lysates were centrifuged (12,000 × g for 10 min at 4°C) and protein concentrations determined (Bradford protein assay; Bio-Rad, Hercules, CA, USA). Aliquots of protein (20 μg) were separated by electrophoresis using 10%−12% SDS–polyacrylamide gel followed by transfer to a polyvinylidene fluoride (PVDF) membrane. […] The immune complexes were detected using horseradish peroxidase (HRP)-conjugated goat anti-mouse or goat anti-rabbit IgG antibody (1:5,000; GeneTex) and chemiluminescent HRP substrate (Millipore, Burlington, MA, USA). Immunoreactive bands were captured (ImageQuant™ LAS 4000, GE Healthcare, Chicago, IL, USA) and quantified (Multi Gauge V3.0 software, Fujifilm, Tokyo, Japan).
# BDNF = test: Western blot BDNF in MPP^+-treated BE(2)-M17 cells; type: cell-based, human; conditions: BE(2)-M17, compound 10 μM + 0.62 mM MPP^+; MPP^+ alone 78%; untreated = 100%
# Procedure: as §1
# caspase-1 = caspase-1 activity assay in MPP^+-treated BE(2)-M17 cells; type: cell-based, human; conditions: BE(2)-M17, 0.62 mM MPP^+ alone; untreated = 100%
# Procedure: BE(2)-M17 cells were plated onto six-well (4 × 10^5/well) and treated with retinoic acid, LM compounds (10 μM), and MPP^+ as described. Cells were collected on day 7 and lysed by six freeze/thaw cycles. Types of substrates applied were: Ac-Tyr-Val-Ala-Asp-7-amino-4-trifluoromethyl coumarin (YVAD-AFC) for caspase-1, Ac-Val-Glu-Ile-Asp-7-amino-4-trifluoromethyl coumarin (VEID-AFC) for caspase-6 (BioVision, Milpitas, CA, USA), and Ac-Asp-Glu-Val-Asp-7-amido-4-methylcoumarin (DEVD-AMC) for caspase-3 (Sigma-Aldrich). The reaction mixtures were incubated for 1.5 h at 37°C per the manufacturer's instructions. The fluorescence intensity at 400 nm excitation and 505 nm emission (caspase-1 and caspase-6) or 360 nm excitation and 460 nm emission (caspase-3) wavelengths were recorded (BioTek FLx800).
# CASP1 = test: Western blot CASP1 in MPP^+-stimulated HMC3 cells; type: cell-based, human; conditions: HMC3, 4 mM MPP^+ alone; untreated = 100%
# Procedure: as §1
# NLRP3 = test: Western blot NLRP3 in MPP^+-stimulated HMC3 cells; type: cell-based, human; conditions: HMC3, 4 mM MPP^+ alone; untreated = 100%
# Procedure: as §1
# TNF-α = test: Western blot TNF-α in MPP^+-stimulated HMC3 cells; type: cell-based, human; conditions: HMC3, 4 mM MPP^+ alone; untreated = 100%
# Procedure: as §1
# IL-6 = test: Western blot IL-6 in MPP^+-stimulated HMC3 cells; type: cell-based, human; conditions: HMC3, 4 mM MPP^+ alone; untreated = 100%
# Procedure: as §1
# [1] = parameters: method as in Chiu et al., 2021; conditions: in vivo pharmacokinetic assessment ref Chiu et al., 2021; cited from earlier work
# [2] = DPPH free radical scavenging activity; conditions: 10–160 μM, 30 min, room temperature
# Procedure: Stable 1,1-diphenyl-2-picrylhydrazyl (DPPH) radical in ethanol (100 μM; Sigma-Aldrich) was used to measure the antioxidant activity of these LM compounds. After addition of quercetin (positive control) or LM compound (10–160 μM), the mixture was vortexed for 15 s and incubated at room temperature for 30 min. Subsequently, the mixture was measured spectrophotometrically at 517 nm (Multiskan GO microplate spectrophotometer; Thermo Fisher Scientific). The free radical scavenging activity was calculated as the percentage of DPPH discoloration using the formula 1 – (absorbance of sample/absorbance of control) × 100%, with half maximal effective concentration (EC50) calculated using the interpolation method.
# [3] = test system: MPP^+-activated HMC3 cells; test: cell viability (MTT) in MPP^+-activated HMC3 cells; type: cell-based; conditions: Homo sapiens; HMC3, compound 10 μM 8 h pre-treatment, then 4 mM MPP^+ 20 h; MPP^+ alone 63%; MPP^+-untreated = 100%
# Procedure: To examine anti-inflammatory potential of LM compounds, HMC3 cells were plated into six-well (2 × 10^5/well) dishes, grown for 20 h, and pre-treated with compounds (10 μM) for 8 h before 4 mM MPP^+ addition for 20 h. The cell viability was evaluated by MTT assay as described, and the release of nitric oxide (NO) in cell culture medium was examined by Griess reagent kit (Thermo Fisher Scientific) based on a classic protocol.
compound,measurement,setting,value
O=C(/C=C/c1ccccc1O)c1c(O)c2ccccc2oc1=O [LM-036],BCL2 level,BCL2,99–110%
same,BDNF level,BDNF,109–110%
"C[n+]1ccc(-c2ccccc2)cc1 [MPP^+, 1-methyl-4-phenyl pyridinium, reference compound]",caspase-1 activity,caspase-1,112%
same,CASP1 expression,CASP1,218%
same,NLRP3 expression,NLRP3,233%
same,TNF-α expression,TNF-α,223%
same,IL-6 expression,IL-6,182%
"CN(C)c1ccc(/C=C/C(=O)c2c(O)c3ccccc3oc2=O)cc1 [LM-021, (E)-3-(3-(4-(dimethylamino)phenyl)acryloyl)-4-hydroxy-2H-chromen-2-one]",bioavailability and BBB penetration potential,[1],good bioavailability and BBB penetration potential
same,EC50,[2],65 µM
same,BCL2 level,BCL2,99–110%
same,BDNF level,BDNF,109–110%
Cc1ccc(/C=C/C(=O)c2c(O)c3ccccc3oc2=O)cc1 [LM-016],EC50,[2],127 µM
same,viability at 10 µM,[3],81 to 86%
